According to patent US20050239754A1 (priority 2003, published 2005):

Assay: Pseudo-titration in water with IRA-400(OH) anion exchange resin, samples assayed by HPLC
Format: physicochemical
Protocol: 60 g of Amberlite IRA400 (OH) resin was prewashed with 4.7 percent (by weight) ammonium hydroxide (50 ml of 28 percent ammonium hydroxide, 250 ml deionized water), followed by extensive washing with deionized water. The final conductivity was 6.1 μS.
Samples containing about 0.9 g of S-[2-[(1-Iminoethyl)amino]ethyl]-2-methyl-L-cysteine di-hydrochloride in 142 ml HCl/water solution, were concentrated on a rotary evaporator at 60° C. to an oil. To the oil, diluted to 60 ml with deionized water, was added aliquots of 0.5 g of washed anion exchange resin while stirring. At five minutes after each aliquot of resin was added, the solution pH was measured and a sample removed through a syringe filter. A total of 9 g of anion exchange resin was added. The final pH was 10.8. The resin was removed by filtration and the filtrate was concentrated to an oil by rotary evaporation at 60° C.; no solids formed. The starting material, final filtrate and all intermediate samples were assayed by HPLC and ion chromatography for chloride.
The diamond (solid line) is pH and square (dashed line) is S-[2-[(1-Iminoethyl)amino]ethyl]-2-methyl-L-cysteine (percent initial, by ion chromatography). […] The diamond (solid line) is pH and triangle (broken line) is chloride (by ion chromatography).
These curves are not true titration curves since samples were withdrawn during the progress of the reaction, and since true equilibrium was not attained before the increments of resin were added. Nevertheless, the graphs of FIG. 2 and FIG. 3 illustrate the expected trends. As resin is added to the S-[2-[(1-Iminoethyl)amino]ethyl]-2-methyl-L-cysteine solution the pH rises with change in slope around pH's of 2, 9 and 11. The pH's of slower rise are representative of the pK's of the carboxylic acid, amine and amidine functional groups, respectively. Above a pH of 10, the S-[2-[(1-Iminoethyl)amino]ethyl]-2-methyl-L-cysteine concentration in solution decreases. At this point, the S-[2-[(1-Iminoethyl)amino]ethyl]-2 methyl-L-cysteine is gaining a net negative charge and is binding to the resin. […] The final chloride content is approximately 0.04 mol equivalents.

[1] = pseudo-titration with anion exchange resin in water, not true titration curves

CC(=N)NCCSC[C@](C)(N)C(=O)O [S-[2-[(1-Iminoethyl)amino]ethyl]-2-methyl-L-cysteine]
pH of slower rise representative of the pK of the amidine [1]: ~11
pH of slower rise representative of the pK of the amine [1]: ~9
pH of slower rise representative of the pK of the carboxylic acid [1]: ~2
Degradation by HPLC assay of the titration samples (samples up to final pH 10.8): no degradation
